Measurements taken from patent publication US20240000707A1, “INHALABLE DRY POWDER FORMULATIONS COMPRISING ANGIOGENESIS INHIBITORS” (Lonza Bend Inc., priority 2020, published 2024).

System: NSCLC cell line Calu-3
Experiment: Orthotopic nude rat model for lung cancer, inhaled vs IP bevacizumab, primary and maintenance treatment
Type: in vivo
Settings: week 8; INH 1.5 mg/kg deposited vs IP 15 mg/kg; cisplatin IP 3 mg/kg
Protocol: NSCLC cell line Calu-3 was instilled into the lungs of X-irradiated rats by an intratracheal route, targeting […] cells per installation. For the first four weeks of the study, no treatment was administered, allowing growth of the tumor cells. Inhaled bevacizumab SDD was evaluated as a primary treatment as well as a maintenance therapy.
Cisplatin was administered by IP at 3 mg/kg. Powder was aerosolized using a rotating brush generator and delivered to the rats passively through nasal inhalation. […] Groups 1-4 were evaluated for primary efficacy after 8 weeks with lung weight as the end point. Groups 5-7 were evaluated for maintenance efficacy after 12 weeks with lung weight and survival as the end point.

Substance: Bevacizumab [IP bevacizumab]
- tumor burden, co-administered with cisplatin, inhaled vs IP bevacizumab: indistinguishable, and significantly lower than group 1 and 3
